Assay results: ChEMBL document CHEMBL1142867, “Antiviral activity of triazine analogues of 1-(S)-[3-hydroxy-2-(phosphonomethoxy)propyl]cytosine (cidofovir) and related compounds” (J Med Chem, 2007)
Converted amounts (≈) assume the structure as drawn.

What was measured:
Human alphaherpesvirus 1 [1] = type: functional, organism-based; conditions: Human alphaherpesvirus 1, KOS, HEL
Human alphaherpesvirus 1 [2] = type: functional, organism-based; conditions: Human alphaherpesvirus 1, KOS, HEL; remark: listed apart in the source
Human alphaherpesvirus 2 [3] = type: functional, organism-based; conditions: Human alphaherpesvirus 2, Lyons, HEL
Human alphaherpesvirus 2 [4] = type: functional, organism-based; conditions: Human alphaherpesvirus 2, G, HEL
Human alphaherpesvirus 3 [5] = test: Antiviral activity against VZV OKA in HEL cells assessed as inhibition of plaque formation; type: functional, organism-based; conditions: Human alphaherpesvirus 3, OKA
Human alphaherpesvirus 3 [6] = test: Antiviral activity against TK- VZV 07-1 in HEL cells assessed as inhibition of plaque formation; type: functional, organism-based; conditions: Human alphaherpesvirus 3, 07-1, HEL
Human betaherpesvirus 5 [7] = type: functional, organism-based; conditions: Human betaherpesvirus 5, AD169, HEL
Human betaherpesvirus 5 [8] = type: functional, organism-based; conditions: Human betaherpesvirus 5, Davis, HEL
Human adenovirus 2 = type: functional, organism-based; conditions: Human mastadenovirus C, HEL
Vaccinia virus = type: functional, organism-based; conditions: Orthopoxvirus vaccinia, Lederle, HEL
[9] = Cytotoxicity against HEL cells assessed as alteration in cell morphology after 3 days; type: cell-based; conditions: human, read-out: Activity
[10] = Cytotoxicity against HSB2 cells assessed as alteration in cell morphology; type: cell-based, CCRF-HSB-2; conditions: human, read-out: Activity
HEL = test: Cytotoxicity against HEL cells assessed as inhibition of cell growth after 3 days; type: cell-based; conditions: human, 72 h
Punta Toro virus = type: functional, organism-based; conditions: Vero
[11] = Cytotoxicity against E6SM cells assessed as alteration in cell morphology; type: cell-based; conditions: human
[12] = Cytotoxicity against HeLa cells assessed as alteration in cell morphology; type: cell-based; conditions: human
[13] = Cytotoxicity against Vero cells assessed as alteration in cell morphology; type: cell-based; conditions: chlorocebus sabaeus
[14] = Cytotoxicity against C3H cells assessed as alteration in cell morphology; type: cell-based; conditions: mouse
[15] = Cytotoxicity against CEM cells assessed as reduction of cell growth; type: cell-based; conditions: human, CEM (CCRF-CEM) cells
[16] = tested on: Human immunodeficiency virus 1; type: functional, organism-based; conditions: Human immunodeficiency virus 1, 3B, CCRF-CEM
[17] = tested on: Human immunodeficiency virus 2; type: functional, organism-based; conditions: Human immunodeficiency virus 2, ROD, CCRF-CEM
[18] = tested on: Moloney murine sarcoma virus; test: Antiviral activity against MSV in mouse C3H cells assessed as inhibition of virus-induced transformation after 6 days; type: functional, organism-based; conditions: 144 h
Coxsackievirus B4 [19] = type: functional, organism-based; conditions: Enterovirus B, HeLa
Coxsackievirus B4 [20] = type: functional, organism-based; conditions: Enterovirus B, Vero
[21] = tested on: Respiratory syncytial virus; type: functional, organism-based; conditions: human respiratory syncytial virus, Long, HeLa
Human respirovirus 3 = type: functional, organism-based; conditions: Human respirovirus 3, Vero
[22] = tested on: Mammalian orthoreovirus 1; type: functional, organism-based; conditions: Mammalian orthoreovirus 1, Vero
Sindbis virus = type: functional, organism-based; conditions: Vero
[23] = tested on: Vesicular stomatitis virus; test: microbe, parasite or virus in culture; conditions: E6SM
[24] = tested on: Vesicular stomatitis virus; test: microbe, parasite or virus in culture; conditions: HeLa
Yellow fever virus = type: functional, organism-based; conditions: Vero
Hepatitis C virus = test: Antiviral activity against HCV in Huh5-2 cells assessed as inhibition of HCV subgenomic replicon replication; type: functional, organism-based, Hepacivirus hominis; conditions: Huh-5-2
[25] = Cytotoxicity against Huh5-2 cells assessed as reduction of cell growth; type: cell-based, Huh-5-2; conditions: human

SMILES | EC50 (Human alphaherpesvirus 1 [1]) [µg/mL] | EC50 (Human alphaherpesvirus 1 [2]) [µg/mL] | EC50 (Human alphaherpesvirus 2 [3]) [µg/mL] | EC50 (Human alphaherpesvirus 2 [4]) [µg/mL] | EC50 (Human alphaherpesvirus 3 [5]) [µg/mL] | EC50 (Human alphaherpesvirus 3 [6]) [µg/mL] | EC50 (Human betaherpesvirus 5 [7]) [µg/mL] | EC50 (Human betaherpesvirus 5 [8]) [µg/mL] | EC50 (Vaccinia virus) [µg/mL] | MCC at 72 h [9] [µg/mL] | Activity (HEL) [µg/mL] | EC50 (Punta Toro virus) [µg/mL] | MCC [11] [µg/mL] | MCC [12] [µg/mL] | MCC [13] [µg/mL] | EC50 (Coxsackievirus B4 [19]) [µg/mL] | EC50 (Coxsackievirus B4 [20]) [µg/mL] | EC50 [21] [µg/mL] | EC50 (Human respirovirus 3) [µg/mL] | EC50 [22] [µg/mL] | also measured
Nc1ccn(C[C@@H](CO)OCP(=O)(O)O)c(=O)n1.O.O [CIDOFOVIR] | 0.09 | 0.38 | 0.43 | 0.35 | 0.077 | 0.073 | 0.2 | 0.3 | 2.6 | > 100 | 60.9 | – | – | – | – | – | – | – | – | – | EC50 (Human adenovirus 2): 1.53 µg/mL; MCC [10]: 37 µg/mL
Nc1ncn(C[C@H](O)CO)c(=O)n1 | > 100 | > 100 | > 100 | > 100 | > 100 | > 100 | > 100 | > 100 | > 100 | > 100 | > 100 | > 100 | > 100 | > 100 | > 100 | > 100 | > 100 | > 100 | > 100 | > 100 | MCC [14]: > 100 µg/mL; CC50 [15]: > 100 µg/mL; EC50 [16]: > 100 µg/mL; EC50 [17]: > 100 µg/mL; EC50 [18]: > 100 µg/mL; EC50 (Sindbis virus): > 100 µg/mL; EC50 [23]: > 100 µg/mL; EC50 [24]: > 100 µg/mL
Nc1cnn(C[C@@H](CO)OCP(=O)(O)O)c(=O)n1 | 8.84 (≈ 31.6 µM) | 24.9 (≈ 88.9 µM) | ≥ 43.4 | 31.5 (≈ 112 µM) | 38.2 (≈ 136 µM) | 18.4 (≈ 65.7 µM) | 30 (≈ 107 µM) | 37.3 (≈ 133 µM) | 63.1 (≈ 225 µM) | > 100 | > 50 | > 80 | > 400 | > 400 | 400 | > 400 | > 80 | > 400 | > 80 | > 80 | EC50 (Yellow fever virus): > 100 µg/mL; EC50 (Hepatitis C virus): 750 µg/mL (≈ 2680 µM); MCC [14]: 100 µg/mL; CC50 [15]: > 100 µg/mL; CC50 [25]: 111 µg/mL (≈ 396 µM); EC50 (Human adenovirus 2): > 100 µg/mL; EC50 [16]: > 100 µg/mL; EC50 [17]: > 100 µg/mL; EC50 [18]: 170 µg/mL (≈ 607 µM); EC50 (Sindbis virus): > 80 µg/mL; EC50 [23]: > 400 µg/mL; EC50 [24]: > 400 µg/mL
NC(N)=NC(=O)NC[C@@H](CO)OCP(=O)(O)O | > 50 | > 50 | > 50 | > 50 | > 50 | > 50 | 35.5 (≈ 131 µM) | 36.8 (≈ 136 µM) | > 100 | > 50 | > 50 | > 100 | > 100 | > 100 | > 100 | > 100 | > 100 | > 100 | > 100 | > 100 | EC50 (Yellow fever virus): > 100 µg/mL; MCC [14]: > 100 µg/mL; CC50 [15]: > 100 µg/mL; CC50 [25]: > 50 µg/mL; EC50 (Human adenovirus 2): > 100 µg/mL; MCC [10]: > 200 µg/mL; EC50 [16]: > 100 µg/mL; EC50 [17]: > 100 µg/mL; EC50 [18]: 68 µg/mL (≈ 252 µM); EC50 (Sindbis virus): > 100 µg/mL; EC50 [23]: > 100 µg/mL; EC50 [24]: > 100 µg/mL
NC(=O)c1ncn([C@@H]2O[C@H](CO)[C@@H](O)[C@H]2O)n1 [RIBAVIRIN] | – | – | – | – | – | – | – | – | – | – | – | 48 (≈ 197 µM) | > 400 | > 400 | > 400 | 48 (≈ 197 µM) | 240 (≈ 983 µM) | 16 (≈ 65.5 µM) | 48 (≈ 197 µM) | 48 (≈ 197 µM) | EC50 (Sindbis virus): 240 µg/mL (≈ 983 µM); EC50 [23]: 240 µg/mL (≈ 983 µM); EC50 [24]: 80 µg/mL (≈ 328 µM)
Nc1ncn(CCOCP(=O)(O)O)c(=O)n1 | 9.9 (≈ 39.6 µM) | 17 (≈ 68 µM) | 39.3 (≈ 157 µM) | 25.8 (≈ 103 µM) | 25 (≈ 99.9 µM) | 10 (≈ 40 µM) | 49 (≈ 196 µM) | 37 (≈ 148 µM) | > 100 | > 100 | > 50 | > 80 | 400 | 400 | 400 | > 80 | > 80 | > 80 | > 80 | > 80 | EC50 (Yellow fever virus): > 100 µg/mL; EC50 (Hepatitis C virus): > 50 µg/mL; MCC [14]: 200 µg/mL; CC50 [15]: 96 µg/mL (≈ 384 µM); CC50 [25]: > 50 µg/mL; EC50 [16]: > 100 µg/mL; EC50 [17]: > 100 µg/mL; EC50 [18]: 7.5 µg/mL (≈ 30 µM); EC50 (Sindbis virus): > 80 µg/mL; EC50 [23]: > 80 µg/mL; EC50 [24]: > 80 µg/mL
Nc1nc(O)c2ncn(COC(CO)CO)c2n1 [GANCICLOVIR] | – | 0.91 (≈ 3.57 µM) | – | 0.0096 (≈ 0.0376 µM) | – | – | – | 1.5 (≈ 5.88 µM) | – | > 100 | 83.6 | – | – | – | – | – | – | – | – | – | –
